Data taken from ChEMBL document CHEMBL3507680, “University of Dundee, Gates Library screen for HepG2 cell viability”.

Test: Human HepG2 cell viability assay in 384 well format
Type: toxicity, cell-based
Parameters: dose 125 nL, time 70.5 hour; concentration not given beside the values
Settings: HepG2 cells, read-out: Inhibition

SMILES	cytotoxicity at 70.5 h [%]
Cc1cccc(CN2CCN3C(=O)NC[C@H]3C2)n1	-2.26
FC(F)(F)c1ccccc1CN1CCOC[C@H](Oc2cccnc2)C1	1.03
CS(=O)(=O)NC[C@H]1Cn2c(-c3ccccc3)cnc2CO1	-7.36
O=C1COC[C@H]([C@H](O)c2ccc(NC(=O)c3ccco3)cc2)N1	-0.619
CC(C)(C)c1c[nH]c([C@@H]2COCCN2C2CCC2)n1	-4.17
COC(=O)[C@@H]1Cc2c[nH]c3cccc(c23)[C@H](CC(C)C)N1	-2.26
CC(C)NC(=O)N1C[C@@H](F)[C@@H](OCc2nc3ccccc3o2)C1	-0.085
Cc1ccc2nc3n(c2c1)[C@@H](CNCc1nccs1)COC3	-5.06
COc1ccc(CNC[C@H]2COCc3nc4cccnc4n32)cc1	-4.57
CCN(CC)C[C@H]1CN2CC[C@H]1C[C@@H]2CNC(=O)c1ccco1	-3.47
COCC(=O)NC[C@H]1C[C@@H]2CCN1C[C@@H]2CN1CCc2ccccc21	-3.32
O=C(N[C@@H]1CNCCC[C@H]1O)c1ccc(OCCN2CCOCC2)cc1	1.5
O[C@@H]1C[C@@H](c2nc(-c3ccccc3)no2)N(Cc2cccnc2)C1	-2.41
Cc1ccc(S(=O)(=O)Cc2noc([C@@H]3C[C@@H](O)CN3)n2)cc1	-3.28
COCCOc1ccc(-c2noc([C@@H]3CCCN3)n2)cn1	-0.543
Cc1ccccc1CN1CCC[C@H]1c1nc(-c2cncnc2N)no1	-3.84
CCN(CC)C1(Cc2cc(-c3ccccn3)on2)COC1	-4.45
CC(C)(C)CNC1(Cc2cc(C(C)(C)O)on2)COC1	-7.44
CC(=O)N1CCC(N2CCOC[C@H]2c2nc(-c3ccccc3)c[nH]2)CC1	-2.43
CS(=O)(=O)c1ccc(CNC[C@H]2COCc3nc4ccccc4n32)cc1	5.94
CC(=O)N1CCC(N2C[C@@H](F)[C@@H](OCc3nc4ncccc4[nH]3)C2)CC1	-2.27

SMILES	cytotoxicity at 70.5 h [%]
CC(=O)NC[C@H]1COCc2nc3cc(S(C)(=O)=O)ccc3n21	-0.348
CS(=O)(=O)c1ccc2c(c1)nc1n2[C@@H](CNCc2cccnc2)COC1	-6.64
COc1ccc(CN2C[C@H]3CN(C(=O)c4ccno4)CCN3C2=O)cc1	-7.88
CN1CCC(N[C@@H]2CO[C@H](CNC(=O)c3cccs3)[C@H]2O)CC1	-6.9
O=S(=O)(c1ccc(Cl)cc1)N1CCOC[C@H](Oc2cnccn2)C1	0.0647
CO[C@H]1COCCN(C(=O)c2ccc(C(F)(F)F)cc2)C1	-4.56
O=C(NC1CCCC1)O[C@H]1COCCN(c2nc3ccccc3s2)C1	3.92
CS(=O)(=O)c1ccc(O[C@H]2COCCN(C(=O)c3ccno3)C2)cc1	-2.76
O=C(c1ccno1)N1CCOC[C@H](Oc2ccc(C(F)(F)F)cc2)C1	-0.658
COc1ccc(CN2CCOC[C@H](Oc3cccnc3)C2)cc1	4.36
O=C(NC[C@H]1OC[C@@H](NC2CCC2)[C@@H]1O)c1cccs1	-5.08
O=C(NC[C@H]1OC[C@@H](NC2CCCCC2)[C@@H]1O)c1cccs1	-5.2
O=C(NC[C@H]1OC[C@@H](NC2CCCC2)[C@@H]1O)C1CCCC1	10.4
c1cc(-c2c[nH]c([C@@H]3COCCN3C3CCCCC3)n2)ccn1	0.143
Cc1ccc(CN[C@@H]2CO[C@H](CNS(=O)(=O)c3ccccc3)[C@H]2O)cc1	-0.953
c1ccc(CN2CCOC[C@H]2c2nc(-c3ccncc3)c[nH]2)nc1	1.25
CC(=O)N1CCC2(CC1)CN(C(=O)c1ccc3c(c1)OCCO3)C2	5.66
CNC(=O)[C@@H](CC(C)C)N1CCC[C@H]1C(=O)N(C)Cc1ccccc1	-7.93
CNC(=O)[C@@H](C1CCCCC1)N1CCC[C@H]1C(=O)NCCN1CCCC1	3.4
Cc1noc(C)c1CNC[C@@]1(COc2cccnc2)C[C@@H](O)[C@@H](O)C1	-8.56
